According to ChEMBL document CHEMBL3507680, “University of Dundee, Gates Library screen for HepG2 cell viability”:

Experiment: Human HepG2 cell viability assay in 384 well format
Format: toxicity, cell-based
Parameters: dose 125 nL, time 70.5 hour; concentration not given beside the values
Settings: HepG2 cells, read-out: Inhibition

Compound | cytotoxicity at 70.5 h [%]
COc1cc(F)ccc1N(C)Cc1ccncc1 | -1.33
CC(NCc1ccc(OCC(N)=O)cc1)c1ccc2c(c1)CCCC2 (stereo not given) | -4.04
O=S(=O)(NCC1CCN(c2cnccn2)CC1)c1c(F)cccc1F | -9.72
CC(=O)NCCNC(=O)c1cnc2c(c1)nc(-c1ccccc1Cl)n2C | -6
CN(C)C(=O)c1ccc(C2CCCNC2)nc1 (stereo not given) | -6.57
O=c1cc(-c2ccncc2)nc(-c2ccc(CN3CC[C@H](O)C3)cc2)[nH]1 | -6.15
CC(C)N1CCc2nnc(COc3cncnc3)n2CC1 | -9.44
CCc1ccc(C2CC(=O)Nc3cc(OC)c(NS(C)(=O)=O)cc32)o1 (stereo not given) | -3.63
COCC[C@]1(O)CCN(CC(=O)NCc2ccccc2C)C[C@H]1C | -2.23
c1cc(-c2noc(-c3cc(C4CC4)on3)n2)cc(N2CCCCC2)n1 | -7.87
Cn1ccnc1CN1CCN(Cc2cc(C#N)ccc2F)CC1 | -11.4
O=C(CC1OCCc2ccccc21)NCC1(O)CCCCC1 (stereo not given) | -2.94
CCC(C)(CNC(=O)Nc1nccs1)N1CCOCC1 (stereo not given) | -8.6
O=C1c2cnc(N3CCCCC3)nc2CN1c1ccc2c(c1)OCO2 | 16.4
Cc1ccc(C(=O)N(Cc2cccc(F)c2)C2CC2)c(=O)[nH]1 | -2.11
CN(Cc1cccnc1)C1CC2(CCN(Cc3ccccn3)CC2)C1 | -11.6
COc1ccc(OCCN(C)S(=O)(=O)N2CCOCC2)cc1 | -6.12
O=C(NCC1CCS(=O)(=O)C1)Nc1ccccn1 (stereo not given) | 3.81
CCc1ccc(OCC(O)CN2CCN(CC)CC2)cc1 (stereo not given) | 20.5
Cc1ccn2c(F)c(C(=O)N3CCC4(CCCN(C)C4=O)C3)nc2c1 (stereo not given) | -8.44
Cc1c(C(C)NC(=O)C2CCCC2)cnn1C (stereo not given) | 36.2
CC(C)[C@@H]1CN(C(=O)CCn2ccccc2=O)C[C@H]1NS(C)(=O)=O | -7.19
Cc1nn(C)c(Cl)c1C1CCCN1C(=O)c1ccncc1 (stereo not given) | 0.652

Compound | cytotoxicity at 70.5 h [%]
CC(C)NC(=O)CC1COC2(CCN(Cc3ccsc3)CC2)C1 (stereo not given) | -9.99
CCOCCn1nc(C2CCNCC2)n(Cc2ccccc2)c1=O | 3.02
CCc1ccc(C(=O)N2CCCC3(CCCC(=O)N3C)C2)cc1 (stereo not given) | -10.6
CCCNC(=O)C(C)n1nc(-c2ccc(C)o2)cc(N)c1=O (stereo not given) | -1.77
COc1ccc(CNC(C)c2cccc(Br)c2)c(OC)c1OC (stereo not given) | 17.6
CS(=O)(=O)N[C@@H]1CN(Cc2ccoc2)C[C@@H]2CCCO[C@@H]21 | -8.39
O=C1CCC2(CCCN(C(=O)c3cscn3)C2)CN1CCc1c[nH]cn1 (stereo not given) | -9.29
CC1CN(C(=O)c2ccc(C(N)=O)cc2)c2ccc(F)cc2O1 (stereo not given) | 2.67
CC(C)c1nc2c(n1C)CCN(CCc1ccccn1)C2 | -4.15
CCc1ccc(CN2CCc3c(nnn3C)C2COC)cc1 (stereo not given) | -5.54
O=C(Cc1csc(-c2ncccn2)n1)N1CCN2CCCCC2C1 (stereo not given) | 7.23
COC(=O)Cc1cn2cc(C(F)(F)F)ccc2n1 | 13.2
O=C(C1CCCO1)N1CCC2(CC1)CNCCO2 (stereo not given) | 9.56
O=C(CC1CC2(CCN(CC3CC3)CC2)c2ccccc21)NC1CCC1 (stereo not given) | -2.68
CCCC(=O)N1CCC(c2cc[nH]n2)C1 (stereo not given) | 0.0603
CCC(=O)N(C)Cc1cccc(OC(C)C)c1 | -5.79
CCOc1ccc(CN(C)C(=O)c2nc(N3CCCC3)ncc2Cl)cc1 | -8.28
CC(C)(C)c1nc(CN(Cc2ccccc2Cl)C2CCCC2)no1 | -2.25
COc1cccc(OCC2CCCN(C(=O)CCc3cc(O)no3)C2)c1 (stereo not given) | -21.1
CCCc1nc(NCc2c(C)nn(CCC)c2C)c2cnn(C)c2n1 | -9.62
Cc1nc(-c2cncnc2C2CCCNC2)no1 (stereo not given) | 26.9
CC(OCC1CC1)C(=O)Nc1cccc(C(=O)Nc2ccccn2)c1 (stereo not given) | -8.38
CCOCC1CC2(CCN(C(=O)c3ccccn3)CC2)CO1 (stereo not given) | -6.81

Compound | cytotoxicity at 70.5 h [%]
COc1ccc(CN2CCC3(CC(=O)N(c4cccc(F)c4)C3)C2)cc1 (stereo not given) | -10.4
COCc1nc(CNc2cc(C)nc(-c3ccccc3)n2)no1 | -8.75
CN(C)CCN1C(=O)CCC12CCN(Cc1cccs1)CC2 | -11.7
Cc1nc2c(N3CCC(O)(Cn4ccnc4)CC3)ncnc2o1 | -0.124
CN(CCCc1ccccc1)C(=O)c1ccccc1NCC(=O)O | -13.3
COc1ccc(-n2ccc(C(=O)NCCN3CCCCC3)n2)cc1 | -4.18
O=C(O)C1(Cc2ccccc2Cl)CCN(c2ncccn2)CC1 | -10.5
Cc1noc(C)c1CN(C)C(=O)C1CCN(S(N)(=O)=O)CC1 | -1.71
CC[C@H](C)[C@H](NC(=O)c1cccc(-n2cnnn2)c1)C(=O)OC | -11
O=C(c1ccncc1F)N1CCOC(c2cccc(O)c2)C1 (stereo not given) | 2.22
O=S(=O)(Cc1ccccc1)CC(O)Cn1cccn1 (stereo not given) | -2.14
COCCNC(=O)c1cc(C2CC2)nc2onc(C3CCNC3)c12 (stereo not given) | -7.31
COc1cccc(C(c2c(C)n[nH]c2O)c2c(C)n[nH]c2O)c1OC | -11.7
CN1CCCN(C(=O)NCCNc2ncccc2C#N)CC1 | -2.49
Cc1ccccc1CC(=O)N1C[C@H]2CC[C@@H]1CN(Cc1cccnc1)C2 | -4.12
COc1cncc(-n2ccnc2-c2ccc(C(=O)O)s2)c1 | -10
CCN(CC)C[C@H]1CN2CC[C@H]1C[C@@H]2CNC(=O)c1ccco1 | -3.47
Cn1ccnc1C(NCc1ccccc1)c1ccc(F)cc1 (stereo not given) | -2.68
Cc1ccc(C(=O)N2CCc3c(CNS(C)(=O)=O)cncc3C2)o1 | 0.323
Cc1nnc2n1CCN(CCCS(=O)(=O)c1ccccc1)C2 | 0.781
CCn1nc2c(cc1=O)CN(CCOc1ccccc1C#N)CC2 | -8.44
COC[C@H]1CCC[C@]12CN(S(=O)(=O)c1cccs1)CCO2 | -4.35
O=C1CC(NS(=O)(=O)c2ccc(Cl)cc2)CN1 (stereo not given) | 0.308

Compound | cytotoxicity at 70.5 h [%]
COCC[C@]1(O)CCN(C(=O)CCc2cnn(C)c2)C[C@H]1C | -7.34
CS(=O)(=O)CCSc1cccc(C#N)c1 | -4.4
Cc1ccc(F)cc1C(=O)N1CCN(S(C)(=O)=O)[C@@H](C)C1 | -82.4
N#CCCNC(=O)CN1CCC(c2cc3ccccc3[nH]2)CC1 | -10.1
O=C(Nc1ccc(-c2csnn2)cc1)N1CCCC1 | -11.8
CC(C)Oc1cc(N2C[C@@H](C)O[C@@H](C)C2)nc(N)n1 | -14.6
Cc1ccsc1C(=O)N1CC2CC1(C(=O)NCc1ccco1)C2 | 13.9
c1cc(CN2CCC3(CCOCC3COCC3CC3)CC2)co1 (stereo not given) | -4.78
COCCN(C)C(=O)c1cc2c(s1)CCN2C(=O)C1CC1 | 2.55
Cc1cc(C)n(CCCC(=O)N2CCc3ncc(Cl)cc3C2)n1 | 30.1
CCOC(=O)CNc1nc(COC)nc2c1cnn2C | -4.25
Cc1nc(C)c(CC(=O)N2CCC(Oc3ccccc3)CC2)c(=O)[nH]1 | -7.9
c1ccc(-c2nc(CN3CCn4c(nnc4C4CC4)C3)co2)cc1 | -9.3
Cc1nc(C)n(CC2CCCN2CC(=O)Nc2cccnc2)n1 (stereo not given) | -0.954
OCc1ccc(-c2nccn2CCc2nc3c(s2)CCCC3)o1 | 9.89
Cc1ccc(F)c2c1N(C(=O)Cc1c(C)nn(C)c1C)CCC2 | -8.9
Cc1cccnc1NC(=O)NCc1ccc(N2CCNC(=O)C2)cc1 | -10.1
CCNc1cc2c(nn1)CCN(C(=O)c1cc3c(s1)CCOC3)C2 | -9.07
CCC1COCCN1C(=O)CNC(=O)c1ccc2c(c1)CCC2 (stereo not given) | 37.1
Cc1nc(C)n(CC(C)C(=O)N2CCC(N3CCC(O)CC3)CC2)n1 (stereo not given) | -3.14
Cc1ccc(S(=O)(=O)NCc2cccc(C(=O)N3CCCC3)c2)cc1F | -7.96
CN(C(=O)c1cccc(OCC(F)F)n1)c1ccc2c(c1)CCO2 | 21.4
COc1ccc(-n2ncc(C(C)NC3CCOCC3)c2C)cc1 (stereo not given) | -1.36

Compound | cytotoxicity at 70.5 h [%]
CCc1oc(C(=O)N(C)Cc2ccncc2)cc1CN(CC)CC | -6.93
NCC1(c2cccc(F)c2)CCOCC1 | 19.1
CC(C)N1CCOC(c2cc(CCO)[nH]n2)C1 (stereo not given) | -1.76
CC(=O)c1ccc(-n2c(C)cn(CCC#N)c2=O)cc1 | 22.1
O=C(c1cncs1)N1CCOCC(Cc2ccncn2)C1 (stereo not given) | -7.66
CCn1nc(C)c2nc(C(C)C)nc(NCCOC)c21 | -5.06
CCS(=O)(=O)N1C[C@H]2CN(Cc3cccc(F)c3)C(=O)[C@H]2C1 | -3.13
Cc1nn(C)c(N2CCCN(C)CC2)c1CNC(=O)CC(C)(C)C | 3.8
CCc1ccc(S(=O)(=O)N2CC3(COC(C)(C)OC3)C2)s1 | 14.1
Cc1ccc2nc(CN3CCC(O)(CN4CCCC4)CC3)cc(O)c2c1 | -7.1
Cc1ccc(C)c2c(O)cc(CNCC(N)=O)nc12 | -0.585
COc1cccc(-n2nnc(C(=O)N3CCC(C(N)=O)CC3)c2C)c1 | -8.91
C[C@@H]1CN(C2CCN(Cc3cnc(-c4cccs4)nc3)CC2)C[C@H](C)O1 | 1.06
CC(=O)NC1CCc2ccc(S(=O)(=O)NCc3ncccc3C)cc21 (stereo not given) | 39.1
CC(=O)NC1CCCN(C(=O)Nc2cccnc2-n2cccn2)C1 (stereo not given) | -6.08
CN(C)C(=O)C1CCN(Cn2ccc(-c3ccc(F)cc3)n2)CC1 | -12.5
CSc1ccsc1C(=O)NCCNC(=O)C1CC1 | -6.91
O=C(Nc1ccnc(OC2CCOC2)c1)c1ccccc1Cl (stereo not given) | -4.06
COCC(=O)N1Cc2cnc(Cc3ccc(OC)cc3)nc2C1 | 1.24
CCN(C(=O)CN(Cc1cccc(O)c1)C1CCC(O)CC1)C1CC1 (stereo not given) | -2.83
COCCN1C[C@@H]2[C@@H](OC)CCN(Cc3cccs3)[C@@H]2C1 | -1.71
COc1cc(C(=O)Nc2nc(C)no2)ccc1OC(F)F | 2.82
COC(=O)c1cc2c(OC)c(C)c(OC)cc2[nH]1 | -9.36
